Values of other authors in article PMC3880798 (Clinical cancer research : an official journal of the …, 2013).
Read-outs that look alike come from different tables or passages of the source.

How the values were obtained:
c-Kit = settings: intact cellular systems; cited from earlier work
GIST = settings: cited from earlier work
[1] = cited from earlier work

For `Cc1ccc(NC(=O)c2ccc(CN3CCN(C)CC3)cc2)cc1Nc1nccc(-c2cccnc2)n1` [imatinib], the “Potency for wild-type versus mutant c-Kit” value (c-Kit) is listed as “significantly lower potency for wild-type c-Kit relative to mutant c-Kit”, the “Median time to progression” value (GIST) is listed as “approximately 2 years” and the “Median duration of response” value (GIST; first-line) is listed as “about 2 years”.
In the case of `Cc1cn(-c2cc(NC(=O)c3ccc(C)c(Nc4nccc(-c5cccnc5)n4)c3)cc(C(F)(F)F)c2)cn1` [nilotinib], the Disease stabilization (GIST) is listed as 38% and the “Median duration of disease stabilization” value (GIST) is listed as 12 weeks.
For `Cc1ccc(Nc2nccc(N(C)c3ccc4c(C)n(C)nc4c3)n2)cc1S(N)(=O)=O` [pazopanib], the Patients with proteinuria [1] is given as 51%.
In the case of `CCN(CC)CCNC(=O)c1c(C)[nH]c(/C=C2\C(=O)Nc3ccc(F)cc32)c1C` [sunitinib], the “Incidence of PPE” value [1] is given as “up to 20%” and the “Median time to progression” value (GIST; standard second-line therapy) is given as 27 weeks.
